Values joined by “and” are separate entries in the source; they are usually repeats but may differ in a detail not shown here. Equal entries are not always repeated. Toxic doses and inconclusive results are not listed. Rule for the calls: active = survival T/C of 150% or more; inactive = T/C below 125% in these data.
Tested on: L1210 leukemia iv in BDF1 mice, survival T/C
Assay: NCI In Vivo Anticancer Drug Screen. Data for tumor model L1210 Leukemia (intravenous) in B6D2F1 (BDF1) mice
Conditions: higher = longer survival
Method: The antitumor activity of compounds was measured in mice bearing transplantable tumors. Survival or tumor size were measured and the results are expressed as the measurement made in the treated group (T) divided by the measurement made in the vehicle treated control group (C). The tumor model used in this assay is L1210 Leukemia (intravenous) in B6D2F1 (BDF1) mice

Measured: T/C

O=NN(CCCl)C(=O)NC1C2CC3CC(C2)CC1C3 (centres undefined)
inactive: endpoint: mean survival time, dose: 22.0 mg/kg/injection, schedule: Q01DX001 (ip), vehicle: other 107 % of control and 118 % of control
active: endpoint: mean survival time, dose: 45.0 mg/kg/injection, schedule: Q01DX001 (ip), vehicle: other 160 % of control | endpoint: mean survival time, dose: 91.0 mg/kg/injection, schedule: Q01DX001 (ip), vehicle: other 156 % of control | endpoint: mean survival time, dose: 181.0 mg/kg/injection, schedule: Q01DX001 (ip), vehicle: other 166 % of control and 229 % of control | endpoint: mean survival time, dose: 362.0 mg/kg/injection, schedule: Q01DX001 (ip), vehicle: other 440 % of control and 514 % of control

CC(=O)OC1CCC(NC(=O)N(CCF)N=O)CC1 (centres undefined)
active: endpoint: mean survival time, dose: 16.0 mg/kg/injection, schedule: Q01DX001 (ip), vehicle: other 175 % of control | endpoint: mean survival time, dose: 24.0 mg/kg/injection, schedule: Q01DX001 (ip), vehicle: other 248 % of control | endpoint: mean survival time, dose: 32.0 mg/kg/injection, schedule: Q01DX001 (oral), vehicle: other 441 % of control | endpoint: mean survival time, dose: 36.0 mg/kg/injection, schedule: Q01DX001 (ip), vehicle: other 473 % of control

COc1cccc2c1C(=O)c1c(O)c3c(c(O)c1C2=O)CC(O)(C(=O)CO)CC3OC1CC(N)C(O)C(C)O1 (centres undefined)
inactive: endpoint: mean survival time, dose: 0.75 mg/kg/injection, schedule: Q01DX005 (iv), vehicle: saline 104 % of control | endpoint: mean survival time, dose: 1.5 mg/kg/injection, schedule: Q01DX005 (iv), vehicle: saline 103 % of control | endpoint: mean survival time, dose: 3.0 mg/kg/injection, schedule: Q01DX005 (iv), vehicle: saline 117 % of control | endpoint: mean survival time, dose: 4.0 mg/kg/injection, schedule: Q01DX005 (iv), vehicle: saline 105 % of control | endpoint: mean survival time, dose: 5.0 mg/kg/injection, schedule: Q01DX005 (iv), vehicle: saline 89 % of control | endpoint: mean survival time, dose: 6.0 mg/kg/injection, schedule: Q01DX005 (iv), vehicle: saline 97 % of control | endpoint: mean survival time, dose: 7.0 mg/kg/injection, schedule: Q01DX005 (iv), vehicle: saline 96 % of control | endpoint: mean survival time, dose: 8.0 mg/kg/injection, schedule: Q01DX005 (iv), vehicle: saline 90 % of control

O=c1[nH]c(=O)n(C2CC(O)C(CO)O2)cc1F (centres undefined)
inactive: endpoint: mean survival time, dose: 400.0 mg/kg/injection, schedule: Q01DX001 (ip), vehicle: saline 122 % of control

O=NN(CCCl)C(=O)NCCCl
120 % of control and 297 % of control: endpoint: mean survival time, dose: 62.0 mg/kg/injection, schedule: Q01DX001 (ip), vehicle: other
active: endpoint: mean survival time, dose: 7.0 mg/kg/injection, schedule: Q01DX001 (ip), vehicle: other 152 % of control and 175 % of control | endpoint: mean survival time, dose: 10.0 mg/kg/injection, schedule: Q01DX001 (ip), vehicle: other 197 % of control | endpoint: mean survival time, dose: 10.0 mg/kg/injection, schedule: Q01DX001 (ip), vehicle: saline + alcohol 347 % of control (2×) and 204 % of control | endpoint: mean survival time, dose: 10.0 mg/kg/injection, schedule: Q04DX004 (ip), vehicle: other 256 % of control | endpoint: mean survival time, dose: 15.0 mg/kg/injection, schedule: Q04DX004 (ip), vehicle: other 719 % of control | endpoint: mean survival time, dose: 18.0 mg/kg/injection, schedule: Q01DX001 (ip), vehicle: saline + alcohol 263 % of control | endpoint: mean survival time, dose: 20.0 mg/kg/injection, schedule: Q04DX004 (ip), vehicle: other 629 % of control | endpoint: mean survival time, dose: 27.0 mg/kg/injection, schedule: Q01DX001 (ip), vehicle: other 335 % of control and 283 % of control and 316 % of control | endpoint: mean survival time, dose: 27.0 mg/kg/injection, schedule: Q01DX001 (ip), vehicle: saline + alcohol 358 % of control | endpoint: mean survival time, dose: 27.0 mg/kg/injection, schedule: Q01DX001 (oral), vehicle: other 481 % of control and 523 % of control and 549 % of control | endpoint: mean survival time, dose: 30.0 mg/kg/injection, schedule: Q01DX001 (ip), vehicle: other 385 % of control | endpoint: mean survival time, dose: 30.0 mg/kg/injection, schedule: Q04DX004 (ip), vehicle: other 621 % of control | endpoint: mean survival time, dose: 31.0 mg/kg/injection, schedule: Q01DX001 (ip), vehicle: other 342 % of control and 248 % of control | endpoint: mean survival time, dose: 39.0 mg/kg/injection, schedule: Q01DX001 (ip), vehicle: other 373 % of control and 400 % of control and 473 % of control | endpoint: mean survival time, dose: 40.0 mg/kg/injection, schedule: Q01DX001 (oral), vehicle: other 553 % of control and 633 % of control and 678 % of control | endpoint: mean survival time, dose: 49.0 mg/kg/injection, schedule: Q01DX001 (ip), vehicle: other 466 % of control and 478 % of control and 532 % of control | endpoint: mean survival time, dose: 60.0 mg/kg/injection, schedule: Q01DX001 (oral), vehicle: other 434 % of control and 471 % of control and 625 % of control | endpoint: median survival time, dose: 18.0 mg/kg/injection, schedule: Q## X001 (ip), vehicle: saline + alcohol 188 % of control | endpoint: median survival time, dose: 30.0 mg/kg/injection, schedule: Q## X001 (ip), vehicle: saline + alcohol 241 % of control | endpoint: median survival time, dose: 48.0 mg/kg/injection, schedule: Q## X001 (ip), vehicle: saline + alcohol 297 % of control

Reference: PubChem BioAssay AID254 (DTP/NCI, 2004)
